The values below come from patent US20230365519A1, “CARBOXYLIC DIARYLTHIAZEPINEAMINES AND USES THEREOF” (Kures, Inc., priority 2020, published 2023).

This data set is described as follows: Brain pharmacokinetics of tianeptine and its 5-carbon metabolite (7i) in mice. The procedure:
Experimental Protocol for PK Studies. […] Brain samples were collected from three mice at 0.08, 0.25, 0.5, 1, 2, 4, 8 and 24 h, homogenized using ice-cold phosphate buffer saline (pH 7.4), and stored below -70° C. until analysis. Total homogenate volume was three times the tissue weight. All samples were processed for analysis by protein precipitation using acetonitrile (ACN) and analyzed with a fit-for-purpose LC/MS/MS method (LLOQ - 1.01 ng/mL in brain). Pharmacokinetic parameters were calculated using the non-compartmental analysis tool of Phoenix WinNonlin® (Version 6.3).

[1] abbreviates: C57BL/6 mice, single injection of tianeptine 30 mg/kg i.p.
Setting [2] is: mice, after tianeptine 30 mg/kg i.p., in words.

On to `CN1c2ccccc2C(NCCCCC(=O)O)c2ccc(Cl)cc2S1(=O)=O.Cl` (stereo not drawn) [Compound 7i], for which, under setting [1], the AUClast is 5963 ng·h/g, the CL is 78 mL/min/kg, the time of peak concentration (Tmax) (commonly the time at which the peak concentration occurs) was found to be 30 min and the T½ was 2.33 h. Also, under setting [2], the “brain exposure (as measured by AUC) compared to the parent compound (tianeptine)” value is given as “greater brain exposure” and the “half-life compared to the parent compound (tianeptine)” value is recorded as “significantly longer half-life”.
